# Read-outs that look alike come from different tables or passages of the source.
# Columns and labels:
# MV4-11 tumors = assay: MV4-11 xenograft mouse model; conditions: Figure 3B
# [1] = test system: midostaurin-resistant MOLM-14 cells; assay: cells; conditions: Homo sapiens, MOLM-14, read-out: IC50 against midostaurin-resistant MOLM-14 cells
# MOLM-13-QR2 cells = assay: cells; conditions: Homo sapiens, read-out: IC50, cell viability
# MOLM-14-MR2 cells = assay: cells; conditions: Homo sapiens, 72 h, read-out: IC50, cell viability
# MOLM-14-MR cells = assay: cells; conditions: Homo sapiens, 72 h, read-out: IC50, cell viability
# MOLM-14-MR2 tumors = assay: MOLM-14-MR2 xenograft mouse model; assay type: in vivo; conditions: MOLM-14-MR2 tumors (NRAS mutated), oral once per day
# RET = target: T1, RET (Homo sapiens, UniProt P07949); assay: KINOMEscan kinase binding assay
# T1 construct: purchased Eurofins (KINOMEscan service)
# Method: (§1) Kd values were calculated from duplicate 11-point dose-response curves.
# (§2) KINOMEscan kinase binding assays were performed at a Eurofins laboratory as previously described.
# MEK5 = target: T2, MEK5 (Homo sapiens, UniProt Q13163); assay: KINOMEscan kinase binding assay; conditions: kinase MEK5 (Entrez MAP2K5)
# T2 construct: purchased Eurofins (KINOMEscan service)
# T2 sequence (Q13163 whole entry): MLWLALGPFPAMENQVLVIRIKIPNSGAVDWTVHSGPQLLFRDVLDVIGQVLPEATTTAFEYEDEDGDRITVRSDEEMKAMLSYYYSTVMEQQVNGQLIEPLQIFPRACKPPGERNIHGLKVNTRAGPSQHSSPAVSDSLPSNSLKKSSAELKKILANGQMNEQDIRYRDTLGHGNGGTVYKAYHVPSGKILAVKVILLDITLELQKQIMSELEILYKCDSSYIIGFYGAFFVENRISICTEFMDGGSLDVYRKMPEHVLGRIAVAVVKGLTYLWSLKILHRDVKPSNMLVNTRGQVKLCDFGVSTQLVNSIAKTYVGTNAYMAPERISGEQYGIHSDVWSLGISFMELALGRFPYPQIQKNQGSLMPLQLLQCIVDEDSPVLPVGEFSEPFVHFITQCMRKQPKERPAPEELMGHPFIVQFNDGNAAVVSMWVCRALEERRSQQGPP
# Method: as §1, §2
# PDGFRβ = target: T3, PDGFRβ (Homo sapiens, UniProt P09619); assay: KINOMEscan kinase binding assay; conditions: kinase PDGFRB (PDGFRB)
# T3 construct: purchased Eurofins (KINOMEscan service)
# T3 sequence (P09619 33-1106): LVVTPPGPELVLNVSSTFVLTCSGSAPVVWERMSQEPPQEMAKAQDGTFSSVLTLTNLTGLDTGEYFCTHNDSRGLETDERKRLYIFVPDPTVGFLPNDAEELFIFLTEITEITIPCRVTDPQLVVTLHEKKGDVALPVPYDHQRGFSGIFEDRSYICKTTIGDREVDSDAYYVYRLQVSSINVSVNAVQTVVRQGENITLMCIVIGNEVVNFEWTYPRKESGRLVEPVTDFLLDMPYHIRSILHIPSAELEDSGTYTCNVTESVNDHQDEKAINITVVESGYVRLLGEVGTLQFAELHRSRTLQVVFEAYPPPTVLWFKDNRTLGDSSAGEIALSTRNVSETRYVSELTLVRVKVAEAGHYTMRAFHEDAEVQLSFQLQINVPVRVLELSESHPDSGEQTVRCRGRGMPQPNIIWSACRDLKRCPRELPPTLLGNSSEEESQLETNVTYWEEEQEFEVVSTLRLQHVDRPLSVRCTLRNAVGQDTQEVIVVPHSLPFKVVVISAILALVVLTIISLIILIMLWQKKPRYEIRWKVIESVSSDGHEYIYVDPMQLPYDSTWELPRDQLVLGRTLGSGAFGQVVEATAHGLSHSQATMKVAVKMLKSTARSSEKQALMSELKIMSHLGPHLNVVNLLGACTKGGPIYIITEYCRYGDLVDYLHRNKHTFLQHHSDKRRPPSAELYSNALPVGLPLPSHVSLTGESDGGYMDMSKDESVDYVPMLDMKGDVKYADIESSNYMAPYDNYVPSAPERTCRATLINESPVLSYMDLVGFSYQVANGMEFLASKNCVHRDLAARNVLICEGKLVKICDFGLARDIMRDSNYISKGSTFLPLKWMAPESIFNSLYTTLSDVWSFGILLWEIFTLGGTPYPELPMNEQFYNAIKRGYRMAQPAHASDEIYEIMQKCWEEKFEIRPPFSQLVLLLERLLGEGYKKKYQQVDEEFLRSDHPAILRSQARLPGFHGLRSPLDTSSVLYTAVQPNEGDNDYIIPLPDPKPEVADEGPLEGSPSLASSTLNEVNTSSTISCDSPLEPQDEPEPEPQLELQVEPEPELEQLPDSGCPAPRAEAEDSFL
# Method: as §1, §2
# PDGFRα = target: T4, PDGFRα (Homo sapiens, UniProt P16234); assay: KINOMEscan kinase binding assay; conditions: kinase PDGFRA (PDGFRA)
# T4 construct: purchased Eurofins (KINOMEscan service)
# Method: as §1, §2
# ULK2 = target: T5, ULK2 (Homo sapiens, UniProt Q8IYT8); assay: KINOMEscan kinase binding assay; conditions: kinase ULK2 (ULK2)
# T5 construct: purchased Eurofins (KINOMEscan service)
# T5 sequence (Q8IYT8 1-1036): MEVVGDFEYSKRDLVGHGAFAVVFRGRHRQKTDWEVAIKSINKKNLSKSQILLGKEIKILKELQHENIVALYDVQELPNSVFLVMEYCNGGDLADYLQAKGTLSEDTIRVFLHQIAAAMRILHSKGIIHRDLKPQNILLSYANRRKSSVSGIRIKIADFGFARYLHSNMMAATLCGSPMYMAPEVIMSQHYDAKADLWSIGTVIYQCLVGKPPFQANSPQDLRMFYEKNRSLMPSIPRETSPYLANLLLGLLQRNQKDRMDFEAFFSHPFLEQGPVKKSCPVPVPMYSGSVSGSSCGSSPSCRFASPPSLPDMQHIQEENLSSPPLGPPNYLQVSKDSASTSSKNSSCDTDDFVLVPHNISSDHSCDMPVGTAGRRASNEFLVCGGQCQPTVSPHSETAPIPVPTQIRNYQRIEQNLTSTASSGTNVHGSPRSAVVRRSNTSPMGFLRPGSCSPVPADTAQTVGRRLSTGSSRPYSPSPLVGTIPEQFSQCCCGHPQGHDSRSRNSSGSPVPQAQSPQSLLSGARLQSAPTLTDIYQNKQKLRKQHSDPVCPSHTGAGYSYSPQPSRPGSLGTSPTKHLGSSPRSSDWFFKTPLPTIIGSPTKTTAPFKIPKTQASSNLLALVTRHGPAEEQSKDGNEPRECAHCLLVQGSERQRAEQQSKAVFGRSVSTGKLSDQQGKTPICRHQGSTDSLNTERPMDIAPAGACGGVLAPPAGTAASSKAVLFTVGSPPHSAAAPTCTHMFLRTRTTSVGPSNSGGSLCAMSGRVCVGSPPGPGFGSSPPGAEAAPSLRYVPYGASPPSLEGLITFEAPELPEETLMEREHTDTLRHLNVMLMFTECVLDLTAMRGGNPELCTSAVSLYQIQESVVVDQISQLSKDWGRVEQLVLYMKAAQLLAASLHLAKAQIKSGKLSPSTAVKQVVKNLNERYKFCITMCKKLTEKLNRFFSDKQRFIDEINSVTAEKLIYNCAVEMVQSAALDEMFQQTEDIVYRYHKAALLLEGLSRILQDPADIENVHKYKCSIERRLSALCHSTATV
# Method: as §1, §2
# FLT1 = target: T6, FLT1 (Homo sapiens, UniProt P17948); assay: KINOMEscan kinase binding assay
# T6 construct: purchased Eurofins (KINOMEscan service)
# T6 sequence (P17948 27-1338): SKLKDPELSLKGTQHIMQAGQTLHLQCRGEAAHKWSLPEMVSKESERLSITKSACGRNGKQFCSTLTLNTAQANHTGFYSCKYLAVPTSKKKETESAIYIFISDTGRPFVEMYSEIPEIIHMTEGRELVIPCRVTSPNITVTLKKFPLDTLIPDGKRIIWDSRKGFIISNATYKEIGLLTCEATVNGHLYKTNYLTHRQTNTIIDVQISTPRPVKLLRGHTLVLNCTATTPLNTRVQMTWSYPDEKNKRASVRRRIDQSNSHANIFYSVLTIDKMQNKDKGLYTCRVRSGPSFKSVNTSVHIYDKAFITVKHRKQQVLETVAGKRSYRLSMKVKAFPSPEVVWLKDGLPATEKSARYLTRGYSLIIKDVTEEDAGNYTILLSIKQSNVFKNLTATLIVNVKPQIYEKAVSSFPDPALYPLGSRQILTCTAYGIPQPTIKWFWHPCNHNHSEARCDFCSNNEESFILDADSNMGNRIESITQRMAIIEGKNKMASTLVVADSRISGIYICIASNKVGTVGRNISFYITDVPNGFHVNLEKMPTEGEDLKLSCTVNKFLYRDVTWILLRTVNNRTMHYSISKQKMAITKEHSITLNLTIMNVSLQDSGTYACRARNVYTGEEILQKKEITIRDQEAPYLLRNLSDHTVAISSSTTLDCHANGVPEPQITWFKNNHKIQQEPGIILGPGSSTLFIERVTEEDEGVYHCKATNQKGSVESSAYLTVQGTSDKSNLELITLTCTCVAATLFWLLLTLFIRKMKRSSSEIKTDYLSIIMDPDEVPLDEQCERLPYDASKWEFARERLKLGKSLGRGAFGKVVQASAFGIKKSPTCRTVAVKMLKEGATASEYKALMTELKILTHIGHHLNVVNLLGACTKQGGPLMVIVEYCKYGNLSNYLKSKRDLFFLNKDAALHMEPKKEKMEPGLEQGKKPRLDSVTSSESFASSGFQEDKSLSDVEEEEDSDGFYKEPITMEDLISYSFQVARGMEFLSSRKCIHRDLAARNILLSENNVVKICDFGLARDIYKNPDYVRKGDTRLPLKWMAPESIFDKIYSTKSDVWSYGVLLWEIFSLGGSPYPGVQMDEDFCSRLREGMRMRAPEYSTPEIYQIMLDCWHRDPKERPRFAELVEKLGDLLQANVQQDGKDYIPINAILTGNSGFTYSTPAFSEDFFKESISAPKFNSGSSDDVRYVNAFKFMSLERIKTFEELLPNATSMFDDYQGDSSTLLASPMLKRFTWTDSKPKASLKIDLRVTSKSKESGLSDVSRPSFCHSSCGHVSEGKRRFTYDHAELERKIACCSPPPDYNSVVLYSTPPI
# Method: as §1, §2
# CSF1R/FMS = target: T7, CSF1R/FMS (Homo sapiens, UniProt P07333); assay: KINOMEscan kinase binding assay
# T7 construct: purchased Eurofins (KINOMEscan service)
# T7 sequence (P07333 20-972): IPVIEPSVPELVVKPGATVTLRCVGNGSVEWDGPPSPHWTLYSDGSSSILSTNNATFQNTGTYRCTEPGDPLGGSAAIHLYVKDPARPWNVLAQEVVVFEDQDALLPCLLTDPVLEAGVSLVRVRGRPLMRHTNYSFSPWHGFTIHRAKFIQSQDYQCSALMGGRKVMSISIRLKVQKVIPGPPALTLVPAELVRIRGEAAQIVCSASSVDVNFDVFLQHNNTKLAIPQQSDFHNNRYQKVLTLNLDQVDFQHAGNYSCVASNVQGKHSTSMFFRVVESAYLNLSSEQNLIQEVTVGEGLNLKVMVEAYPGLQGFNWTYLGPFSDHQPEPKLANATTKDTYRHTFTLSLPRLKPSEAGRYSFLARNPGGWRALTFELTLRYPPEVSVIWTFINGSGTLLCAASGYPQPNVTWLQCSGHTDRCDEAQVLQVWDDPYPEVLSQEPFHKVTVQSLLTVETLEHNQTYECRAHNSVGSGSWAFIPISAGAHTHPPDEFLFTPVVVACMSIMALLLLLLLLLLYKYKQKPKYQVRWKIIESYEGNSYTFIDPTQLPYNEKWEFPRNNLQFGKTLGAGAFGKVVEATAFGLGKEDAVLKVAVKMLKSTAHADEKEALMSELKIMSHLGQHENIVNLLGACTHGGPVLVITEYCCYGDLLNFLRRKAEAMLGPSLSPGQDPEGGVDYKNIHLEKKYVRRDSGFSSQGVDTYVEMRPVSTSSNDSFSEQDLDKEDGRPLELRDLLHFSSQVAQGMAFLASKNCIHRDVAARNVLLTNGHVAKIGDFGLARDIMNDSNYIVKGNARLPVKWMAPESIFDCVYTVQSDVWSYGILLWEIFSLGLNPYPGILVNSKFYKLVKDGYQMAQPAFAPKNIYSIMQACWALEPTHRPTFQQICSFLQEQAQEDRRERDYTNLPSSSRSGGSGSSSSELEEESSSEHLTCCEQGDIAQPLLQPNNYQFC
# Method: as §1, §2
# KDR/VEGFR2 = target: T8, KDR/VEGFR2 (Homo sapiens, UniProt P35968); assay: KINOMEscan kinase binding assay
# T8 construct: purchased Eurofins (KINOMEscan service)
# Method: as §1, §2
# FLT4 = target: T9, FLT4 (Homo sapiens, UniProt P35916); assay: KINOMEscan kinase binding assay
# T9 construct: purchased Eurofins (KINOMEscan service)
# Method: as §1, §2
# KIT = target: T10, KIT (Homo sapiens, UniProt P10721); assay: KINOMEscan kinase binding assay; conditions: kinase KIT
# T10 construct: purchased Eurofins (KINOMEscan service)
# T10 sequence (P10721 26-976): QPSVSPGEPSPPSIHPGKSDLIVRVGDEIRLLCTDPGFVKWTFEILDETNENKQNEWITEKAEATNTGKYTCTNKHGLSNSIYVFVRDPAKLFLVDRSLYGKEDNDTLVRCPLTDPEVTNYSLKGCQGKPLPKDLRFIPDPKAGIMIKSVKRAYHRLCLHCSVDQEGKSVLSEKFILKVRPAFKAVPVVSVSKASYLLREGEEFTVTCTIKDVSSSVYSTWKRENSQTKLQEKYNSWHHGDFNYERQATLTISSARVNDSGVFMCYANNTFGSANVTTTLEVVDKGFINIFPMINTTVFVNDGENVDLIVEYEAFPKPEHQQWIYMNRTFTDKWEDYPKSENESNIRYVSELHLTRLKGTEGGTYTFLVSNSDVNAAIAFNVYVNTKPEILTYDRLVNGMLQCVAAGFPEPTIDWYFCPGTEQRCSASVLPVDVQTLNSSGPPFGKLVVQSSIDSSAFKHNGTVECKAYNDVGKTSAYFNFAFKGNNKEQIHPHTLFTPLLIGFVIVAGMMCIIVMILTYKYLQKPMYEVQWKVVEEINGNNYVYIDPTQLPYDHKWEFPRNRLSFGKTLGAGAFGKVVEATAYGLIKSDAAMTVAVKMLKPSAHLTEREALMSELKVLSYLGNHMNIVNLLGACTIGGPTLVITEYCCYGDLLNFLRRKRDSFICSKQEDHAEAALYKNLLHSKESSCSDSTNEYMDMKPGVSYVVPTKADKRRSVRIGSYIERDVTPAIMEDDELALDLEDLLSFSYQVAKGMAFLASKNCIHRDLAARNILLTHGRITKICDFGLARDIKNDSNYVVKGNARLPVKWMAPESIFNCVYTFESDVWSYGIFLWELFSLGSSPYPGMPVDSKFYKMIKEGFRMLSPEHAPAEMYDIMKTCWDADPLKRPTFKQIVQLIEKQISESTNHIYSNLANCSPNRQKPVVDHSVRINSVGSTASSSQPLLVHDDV
# Method: as §1, §2
# MOLM-14 cells = assay: Cell viability assay (CellTiter-Glo 2.0); assay type: cell-based, human; conditions: Homo sapiens, MOLM-14, 72 h, 3 days, read-out: IC50, cell viability
# Method: (§3) Human AML cell lines MV4-11, Kasumi-1, HL-60, and THP-1 were purchased from the American Type Culture Collection (Manassas, Virginia, USA). MV4-11 cells were cultured in Iscove’s Modified Dulbecco’s Medium (IMDM; Thermo Fisher Scientific, Waltham, Massachusetts, USA) supplemented with 10% (vol/vol) heat-inactivated fetal bovine serum (FBS; GE Healthcare Ltd, Chicago, Illinois, USA). […] HL-60 cells were cultured in IMDM supplemented with 20% (vol/vol) heat-inactivated FBS. […] Human AML cell lines, MOLM-13, MOLM-14, EOL-1, and OCI-AML3, were purchased from Leibniz-Institut DSMZ-Deutsche Sammlung von Mikroorganismen und Zellkulturen GmbH.
# (§4) The amount of ATP in viable cells was quantified as a luminescent signal using the CellTiter-Glo 2.0 Assay (Promega Corporation, Madison, Wisconsin, USA) and EnVision (PerkinElmer Inc, Waltham, Massachusetts, USA) to determine the number of viable cells according to the manufacturers’ instructions.
# MV4-11 cells = assay: Cell viability assay (CellTiter-Glo 2.0); assay type: cell-based, human; conditions: Homo sapiens, 72 h; MV4-11, FLT3-ITD, 3 days
# Method: as §3, §4
# EOL-1 cells = assay: Cell viability assay (CellTiter-Glo 2.0); assay type: cell-based, human; conditions: Homo sapiens, EOL1, 72 h; EOL-1, wild-type FLT3 with FIP1L-PDGFRα, 3 days
# Method: as §3, §4
# MOLM-13 cells = assay: Cell viability assay (CellTiter-Glo 2.0); assay type: cell-based, human; conditions: Homo sapiens
# Method: as §3, §4
# HL-60 cells = assay: Cell viability assay (CellTiter-Glo 2.0); assay type: cell-based, human; conditions: Homo sapiens, 72 h; HL-60, wild-type FLT3, 3 days
# Method: as §3, §4
# THP-1 cells = assay: Cell viability assay (CellTiter-Glo 2.0); assay type: cell-based, human; conditions: Homo sapiens, 72 h; THP-1, wild-type FLT3, 3 days; read-out: IC50, cell viability
# Method: as §3, §4
# Kasumi-1 cells = assay: Cell viability assay (CellTiter-Glo 2.0); assay type: cell-based, human; conditions: Homo sapiens, Kasumi 1, 72 h
# Method: as §3, §4
# OCI-AML3 cells = assay: Cell viability assay (CellTiter-Glo 2.0); assay type: cell-based, human; conditions: Homo sapiens, OCI-AML-3, 72 h; OCI-AML3, wild-type FLT3, 3 days; read-out: IC50, cell viability
# Method: as §3, §4
# MOLM-13-QR cells = assay: cells; conditions: Homo sapiens, read-out: IC50, cell viability
# FLT3 signaling = assay: FLT3 inhibitor washout experiment in MOLM-14 cells; assay type: cell-based, human
structure (smiles),measurement,setting,value
"CCc1nc(C(N)=O)c(Nc2ccc(N3CCC(N4CCN(C)CC4)CC3)c(OC)c2)nc1NC1CCOCC1 [Gilteritinib, gilteritinib]",TGI,MV4-11 tumors; 1 mg/kg oral once per day,48%
same,TGI,MV4-11 tumors; 3 mg/kg oral once per day,82%
same,TGI,MV4-11 tumors; 10 mg/kg oral once per day,100%
same,"EC90, tumor growth inhibition",MV4-11 tumors; oral once per day,5.06 mg/kg
same,IC50,[1],29.1 to 49.3 nM
same,IC50,MOLM-13-QR2 cells,43 nM
same,IC50,MOLM-14-MR2 cells,29.1 nM
same,IC50,MOLM-14-MR cells,49.3 nM
same,"EC50, tumor growth inhibition",MOLM-14-MR2 tumors,> 10 mg/kg
same,Kd,RET,11 nM
same,Kd,MEK5,7.8 nM
same,Kd,PDGFRβ,240 nM
same,Kd,PDGFRα,53 nM
same,Kd,ULK2,700 nM
same,Kd,FLT1,380 nM
same,Kd,CSF1R/FMS,46 nM
same,Kd,KDR/VEGFR2,100 nM
same,Kd,FLT4,150 nM
same,Kd,KIT,86 nM
same,IC50,"MOLM-14 cells; MOLM-14, FLT3-ITD, Supplementary Table 3",7.41 nM
same,IC50,"MOLM-14 cells; parental MOLM-14, FLT3-ITD, Figure 4B",7.87 nM
same,IC50,MV4-11 cells,2.01 nM
same,IC50,EOL-1 cells,30.9 nM
same,IC50,"MOLM-13 cells; 72 h, MOLM-13, FLT3-ITD, 3 days, Supplementary Table 3",10 nM
same,IC50,"MOLM-13 cells; parental MOLM-13, FLT3-ITD, Supplementary Table 4",7.89 nM
same,IC50,HL-60 cells,391 nM
same,IC50,THP-1 cells,1530 nM
same,IC50,Kasumi-1 cells,160 nM
same,IC50,OCI-AML3 cells,1420 nM
same,IC50,MOLM-13-QR cells,9.68 nM
same,Durability of inhibition of FLT3 and ERK phosphorylation after removal of inhibitor,FLT3 signaling,no significant inhibitory activity starting 1 hour after removal
same,Long-term durability of inhibition of FLT3 signaling after compound withdrawal,FLT3 signaling,no longer able to inhibit FLT3 signaling at 24 hours
